The source of these data is ChEMBL document CHEMBL1122550.

The structures appear in SMILES notation.

This experiment is described as follows: The ability to displace [3H]colchicine binding to rat brain tubulin protein. The note with it: concentration not given here. Also noted: concentration or dose not given beside the values.
As for `COc1cc2c(c(OC)c1OC)-c1ccc(OC)c(=O)cc1[C@@H](NC(=O)[C@@H]1CC(C)(C)N([O])C1(C)C)CC2`, the inhibition (commonly the change of the read-out against control, counted positive when it falls) stood at 0%.

The molecule `COc1c(COC(=O)C2CC(C)(C)N([O])C2(C)C)c2c(c(OC)c1OC)-c1ccc(OC)c(=O)cc1[C@@H](NC(C)=O)CC2` (stereo partly specified) showed an inhibition of 24%.

In turn, `COc1cc2c(c(OC)c1OC)-c1ccc(OC)c(=O)cc1[C@@H](NC(=O)COC(=O)[C@H]1CC(C)(C)N([O])C1(C)C)CC2` returned an inhibition of 65%.

Molecule `COc1cc2c(c(OC)c1OC)-c1ccc(OC)c(=O)cc1[C@@H](NC(=O)COC(=O)C1CC(C)(C)N([O])C1(C)C)CC2` (stereo partly specified) returned an inhibition of 60%.

As to `COc1cc2c(c(OC)c1OC)-c1ccc(OC)c(=O)cc1[C@@H](NC(=O)COC(=O)[C@@H]1CC(C)(C)N([O])C1(C)C)CC2`, the inhibition was 72%.

For the molecule `COc1cc2c(c(OC)c1OC)-c1ccc(OC)c(=O)cc1[C@@H](NC(=O)[C@H]1CC(C)(C)N([O])C1(C)C)CC2`, the inhibition worked out at 0%.
